Entries after “also recorded” stand apart in the source; their conditions may differ. Like-named read-outs stand apart in the source and are kept apart here.
Legend:
HeLa cells = assay: Housekeeping endocytosis assay (BODIPY-FL dextran internalization); assay type: cell-based
rat thoracic aorta = assay: Ex-vivo rat thoracic aorta constriction-relaxation model; conditions: 10 μM compound 30 min, then 40 nM endothelin; normalized to noradrenalin contraction
Method: As previously described, male rats (Sprague-Dawley) weighing 300 to 400 g were anesthetized with sodium pentobarbital (50 mg/kg i.p.), and thoracic aorta was removed, cleaned of fat and connective tissue placed in Krebs bicarbonate solution (118 mM NaCl; 4.7 mM KCl; 25 mM NaHCO3; 2.5 mM CaCl2; 1.2 mM KH2PO4; 1.2 mM MgSO4; 11 mM glucose) bubbled with 95% O2 and 5% CO2^39,40. The whole aorta was cut along a close spiral to produce a strip of 5 to 6 cm long. The strip was mounted on a Grass force displacement transducer at a tension of 2 grams and placed in a 25 ml chamber maintained at 34° C. Following mounting of aorta strip on transducer, noradrenalin was added to a final concentration of 5 μM and increase of tension-constriction was recorded for 20 min. Subsequently, the noradrenalin was washed with 16 chamber volumes (400 ml) until tension returned to 2 grams. […] Tension was recorded throughout the experiment. […]
To correlate the effect of kinase inhibitors that perturb ETAR intracellular pathway and cAMP production to a physiological relevance we have examined compound effect(s) on the ex-vivo rat thoracic aorta constriction-relaxation model (^39, 40). […] Contractile responses were assessed after aortal strips were treated with 10 μM Gö6976, 10 μM Erbstatin A or 10 μM H-89 for 30 minutes followed by treatment with Endothelin. […]

[1] = test system: M1 muscarinic acetylcholine receptor (M1AR); assay: Agonist-induced M1AR endocytosis in polarized MDCK cells; assay type: cell-based; conditions: 10 μM compound, vs untreated agonist stimulated control
Method: Sensitivity of GPCR internalization to kinase inhibitors acting on ETAR endocytosis. (a) Fully polarized MDCK cells expressing the M1AR were treated with 100 nM carbachol, DMSO, or compounds then fixed and stained with antibodies against the M1AR epitope tag (green) or the GP130 apical plasma marker (red). Cells were pretreated with compounds: 10 μM RO 31 8220, 10 μM Erbstatin A, 10 μM H-89, with 100 nM agonist, agonist alone or DMSO. Scale bar: 20 μm. (b) HEK293T cells expressing a human kappa Opioid receptor fusion to the green fluorescent protein were treated with 10 μM Gö 6976, 10 μM Erbstatin A, 10 μM H-89, 10 μM KT-5720 with 300 nM agonist, agonist alone or DMSO. Scale bar 20 μm. (c) Quantification of kappa Opioid receptor internalization (endosomes/cell) after compound treatment and agonist treatment.
If the involvement of second messenger kinases in agonist induced endocytosis of the ETAR was a generic feature of Gq coupled receptor activation, it may be expected that the kinase inhibitors affecting ETAR endocytosis may have effects on related receptors or related receptors in other cell lines. The kinase inhibitors that disrupted agonist induced ETAR endocytosis were assayed on agonist-induced endocytosis of the Gq/11 coupled M1 muscarinic acetylcholine receptor (M1AR). […]

[2] = test system: human kappa Opioid receptor; assay type: cell-based
[3] = test system: ETAR: GFP expressing cells; assay: Single cell visual screening: red fluorescent dextran internalization in ETAR:GFP expressing cells; assay type: cell-based; conditions: 10 μM compound, 10 min red fluorescent dextran
Method: Single cell differential screening. […] (b) 10 μM Erbstatin A. (c) 10 μM H-89 (d) DMSO (e) 40 nM endothelin-1 alone. Confocal images are from a 1 μm Z section. […] Scale bar 5 μm.
The effect of the 3 kinase inhibitors affecting ETAR on receptor activation and housekeeping endocytosis were simultaneously imaged in ETAR: GFP expressing cells by internalization of red fluorescent dextran (FIG. 3). […] Thus, inhibition of protein kinase A and C second messenger activated kinases potently altered ETAR GPCR internalization but left housekeeping endocytosis unaffected.

cAMP = cAMP production after ET-1 stimulation, indirect ELISA; assay type: cell-based; conditions: for effect on intra-cellular cAMP after ET-1 stimulation: 10 μM compound, 40 nM ET-1
Method: cAMP production requires sequential G-protein activation.
All fine chemicals were purchased from Sigma-Aldrich. Fluorophores and their reactive forms were purchased from Molecular Probes (Eugene, USA). DRAQ5 was from BioStatus (Shepshed, UK). 40 kDa BODIPY-F1-dextran was synthesized from amino dextran using standard protocols. […] Kinase and phosphatase inhibitors were purchased as 95-99% pure 10 mM stock solutions in dimethylsulfoxide or water (Biomol Hamburg, Germany). Stock solutions and formatted assay plates were stored at −20° C. cAMP was measured by indirect ELISA (R & D systems, MN USA) following the manufacturers protocol for cAMP acetylation, and a cAMP standard.
GPCRs can couple to multiple G-proteins and switching between G-proteins is generally mediated by protein phosphorylation^36-38. We assessed the importance of Gq coupling and PKC activity in the generation of intra-cellular cAMP through Gs following agonist stimulation.

[4] = 10 μM compound, fluorescent dextran uptake

CC(C)(C)c1cc(/C=C(\C#N)C(N)=S)cc(C(C)(C)C)c1O [AG-879]
effect on housekeeping endocytosis (integrated intensity per cell) (HeLa cells; 10 μM compound, data not shown): reduced | effect on housekeeping endocytosis (number of endosomes) (HeLa cells; [4]): reduced the number of endosomes

CN(C)CCCn1cc(C2=C(c3c[nH]c4ccccc34)C(=O)NC2=O)c2ccccc21 [GF 109203X]
effect on housekeeping endocytosis (integrated intensity per cell) (HeLa cells): reduced | effect on housekeeping endocytosis (number of endosomes) (HeLa cells): reduced the number of endosomes; also recorded: blocked

Cn1c2ccccc2c2c3c(c4c5ccccc5n(CCC#N)c4c21)CNC3=O [Gö 6976]
endothelin dependent aortal strip contraction vs endothelin alone (rat thoracic aorta): increased contraction

CC1CNCCN1S(=O)(=O)c1cccc2cnccc12 (stereo not shown) [H7]
effect on housekeeping endocytosis (number of endosomes) (HeLa cells; [4]): no significant effect

O=S(=O)(NCCNC/C=C/c1ccc(Br)cc1)c1cccc2cnccc12 [H-89]
agonist-induced M1AR endocytosis [1]: unaffected | effect on housekeeping endocytosis (number of endosomes) (HeLa cells; [4]): None of these compounds had a measurable effect | effect on kOPr internalization [2]: moderate | endothelin dependent aortal strip contraction vs endothelin alone (rat thoracic aorta): significantly lower constriction | housekeeping endocytosis, single cell imaging [3]: unaltered | effect on intra-cellular cAMP after ET-1 stimulation (cAMP): markedly increased cAMP | increase of cellular cAMP (cAMP; PKA inhibition with H-89, endothelin stimulated): two-fold

CCCCCCOC(=O)[C@]1(O)C[C@@H]2O[C@@]1(C)n1c3ccccc3c3c4c(c5c6ccccc6n2c5c31)C(=O)NC4 [KT5720]
effect on kOPr internalization [2]: pronounced stimulation of receptor uptake

CCCCCCCCCCCCCCCC(=O)OC(CC(=O)O)C[N+](C)(C)C.[Cl-] (stereo not drawn) [Palmitoyl DL carnitine chloride]
effect on housekeeping endocytosis (number of endosomes) (HeLa cells; [4]): no significant effect

Cn1cc(C2=C(c3cn(CCCSC(=N)N)c4ccccc34)C(=O)NC2=O)c2ccccc21 [Ro 31-8220]
agonist-induced M1AR endocytosis [1]: unaffected | effect on housekeeping endocytosis (number of endosomes) (HeLa cells; [4]): None of these compounds had a measurable effect | effect on housekeeping endocytosis (number of endosomes) (HeLa cells; 10 μM compound, fluorescent dextran uptake, listed as Ro 31 8220): no significant effect | housekeeping endocytosis, single cell imaging [3]: unaffected | effect on intra-cellular cAMP after ET-1 stimulation (cAMP): blocked cAMP production

CC[C@H](C)[C@H](NC(=O)[C@H](CC(=O)O)NC(=O)[C@H](CC(C)C)NC(=O)[C@H](Cc1c[nH]cn1)NC(=O)[C@@H]1CSSC[C@H](N)C(=O)N[C@@H](CO)C(=O)N[C@H]2CSSC[C@H](NC(=O)[C@H](CCC(=O)O)NC(=O)[C@H](CCCCN)NC(=O)[C@H](CC(=O)O)NC(=O)[C@H](CCSC)NC(=O)[C@H](CC(C)C)NC(=O)[C@H](CO)NC(=O)[C@H](CO)NC2=O)C(=O)N[C@@H](C(C)C)C(=O)N[C@@H](Cc2ccc(O)cc2)C(=O)N[C@@H](Cc2ccccc2)C(=O)N1)C(=O)N[C@H](C(=O)N[C@@H](Cc1c[nH]c2ccccc12)C(=O)O)[C@@H](C)CC [endothelin-1]
intra-cellular cAMP after stimulation with ET-1 alone (cAMP; 40 nM ET-1, after 10 min): robust increase in intra-cellular cAMP | time of peak in cAMP production following stimulation (cAMP; endothelin stimulation): 20 min

Cc1cc(O)c2c(=O)c3c(O)cc(O)c4c5c(O)cc(O)c6c(=O)c7c(O)cc(C)c8c1c2c(c34)c(c78)c65 [hypericine]
housekeeping endocytosis compared to control (HeLa cells): 0.2 fold

CC(=O)c1c(O)c(C)c(O)c(Cc2c(O)c3c(c(C(=O)/C=C/c4ccccc4)c2O)OC(C)(C)C=C3)c1O [rottlerin]
effect on housekeeping endocytosis (number of endosomes) (HeLa cells): no effect

CN[C@@H]1C[C@H]2O[C@@](C)([C@@H]1OC)n1c3ccccc3c3c4c(c5c6ccccc6n2c5c31)C(=O)NC4 [staurosporine]
effect on housekeeping endocytosis (integrated intensity per cell) (HeLa cells; 10 μM compound, data not shown): reduced | effect on housekeeping endocytosis (number of endosomes) (HeLa cells; [4]): reduced the number of endosomes; also recorded: inhibited

CC(C)(C)c1cc(C=C(C#N)C#N)cc(C(C)(C)C)c1O [tyrphostin 9]
effect on housekeeping endocytosis (integrated intensity per cell) (HeLa cells; 10 μM compound, data not shown): reduced | effect on housekeeping endocytosis (number of endosomes) (HeLa cells; [4]): reduced the number of endosomes

— patent publication US20080138834A1, “Cellular antagonists of GPCR physiology” (Institute Pasteur Korea, priority 2006, published 2008)
